Laboratory results taken from patent US5861387A, “Controlled release systems and low dose androgens” (Endorecherche Inc., priority 1995, dated 1999).

Assays:
estrogenic activity = conditions: cited from earlier work
[1] = system: estrogen (ER) and progesterone (PgR) receptor contents in ZR-75-1 cells; conditions: cited from earlier work
bone = conditions: in vivo; cited from earlier work
[2] = system: human breast cancer ZR-75-1 cells, androgen receptor; experiment: Androgenic (androgen receptor) activity in ZR-75-1 cells: cell growth and GCDFP-15/GCDFP-24 secretion; type: cell-based; conditions: ZR-75-1 cells, low concentrations
Experimental: Maintenance of stock cultures The ZR-75-1 human breast cancer cell line can be obtained from the American Type Culture Collection (Rockville, Md.). The cells are routinely cultured in phenol red-free RPMI 1640 medium supplemented with 10 nM E2, 15 mM Hepes, 2 mM L-glutamine, 1 mM sodium pyruvate, 100 IU penicillin per ml, 100 μg streptomycin sulfate per ml, and 10% (v/v) fetal bovine serum (FBS), in a water-saturated atmosphere of 95% air: 5% CO2 at 37° C.
Stock cultures in their logarithmic growth phase are harvested with 0.05% trypsin/0.02% EDTA (w/v) in Hanks' balanced salts solution and resuspended in E2- and phenol red-free RPMI 1640 medium containing 5% (v/v) dextran-coated charcoal (DCC)-treated FBS and 500 ng of bovine insulin per ml, but otherwise supplemented as described above for maintenance of stock cultures. Cells were plated in 24-well Linbro culture plates (Flow Laboratories) at a final density of 0.5-4.0×10^4 cells/well.
Fourty-eight hours after plating, fresh SD medium containing the appropriate concentrations of steroids are added. […] The incubation media are replaced every other day and cells are harvested by trypsinization after 12 days of treatment, unless otherwise indicated. Cell number can be determined with a Coulter Counter.
Calculations and statistical analyses Apparent IC50 values are calculated using an iterative least squares regression (Rodbard, Endocrinology 94:1427-1437,1974), while apparent inhibition constants (Ki values) are calculated according to Cheng and Prusoff (Biochem. Pharmacol. 22: 3099-3108,1973).
In addition to inhibition of cell growth, the secretion of two glycoproteins, namely gross cystic disease fluid protein-15 (GCDFP-15) and GCDFP-24 is markedly stimulated by androgens (Simard et al., Mol. Endocrinol. 3: 694-702, 1989; Simard et al., Endocrinology 126: 3223-3231, 1990).
(§1) To assist in determining the activity of the potential compounds on the various steroid receptors, androgen, glucocorticoid, progesterone and estrogen-receptor-mediated activities of synthetic progestins and anabolic steroids can be measured in ZR-75-1 human breast cancer cells using cell growth as well as GCDFP-15 and GCDFP-24 release as parameters of response (Poulin and Labrie, Cancer Res. 46: 4933-4937, 1986; Poulin et al., Breast Cancer Res. Treatm. 12: 213-225, 1988; Poulin et al., Breast Cancer Res. Treatm. 13: 161-172, 1989; Poulin et al., Breast Cancer Res. Treatm. 13: 265-276, 1989; Simard et al., Mol. Endocrinol. 3: 694-702, 1989; Simard et al., Endocrinology 126: 3223-3231, 1990).
In order to analyze the interactions of synthetic progestins or anabolic steroids with the androgen receptor (AR) and glucocorticoid receptor (GR) in their inhibitory action on cell growth, one takes advantage of the additivity of the anti-proliferative effects of androgens and glucocorticoids in this cell line (Poulin et al., Breast Cancer Res. Treatm. 12: 213-225, 1988; Hatton and Labrie, F., unpublished data). […] On the other hand, the effect of a putative androgen can similarly be measured following saturation of GR by dexamethasone (DEX). […] Thus, in the presence of excess androgen (1 μM DMT) in the presence of E2 and insulin, glucocorticoid effects can be assessed with precision and with no interference by the other receptors. The same applies to study of the role of AR when the cells are incubated in the presence of excess glucocorticoid (3 μM DEX), in the presence of E2 and insulin.

[3] = system: ZR-75-1 human breast cancer cells, glucocorticoid receptor; conditions: detailed kinetic studies
Source text: as §1
In order to analyze the interactions of synthetic progestins or anabolic steroids with the androgen receptor (AR) and glucocorticoid receptor (GR) in their inhibitory action on cell growth, one takes advantage of the additivity of the anti-proliferative effects of androgens and glucocorticoids in this cell line (Poulin et al., Breast Cancer Res. Treatm. 12: 213-225, 1988; Hatton and Labrie, F., unpublished data). […] On the other hand, the effect of a putative androgen can similarly be measured following saturation of GR by dexamethasone (DEX). […]

endometriosis = conditions: in vivo; cited from earlier work
[4] = system: ZR-75-1 human breast cancer cells, progesterone receptor; experiment: Progesterone receptor-mediated inhibition of ZR-75-1 cell growth; type: cell-based
Experimental: These two characteristics of ZR-75-1 cell growth permit study of the extent to which a tested compound's effects on ZR-75-1 cells are attributed to its interaction with PgR by evaluating the effect of insulin and/or estrogen addition on the growth response measured at the end of a 15-day incubation of ZR-75-1 cells with the test compounds.

In the case of `C#C[C@]1(O)CC[C@H]2[C@@H]3CCC4=CC(=O)CC[C@@H]4[C@H]3CC[C@@]21C` [norethisterone], the estrogenic activity (estrogenic activity) is given as “possess estrogenic activity”.
In the case of `CC(C)(O)C(=O)Nc1ccc([N+](=O)[O-])c(C(F)(F)F)c1` [hydroxyflutamide], the “effect on androgenic action of DHT” value [1] is given as “competitively reversed”.
In the case of `C[C@]12CC[C@H]3[C@@H](CCC4=CC(=O)CC[C@@H]43)[C@@H]1CC[C@@H]2O` [nandrolone], the androgenic side effects (bone) is given as 50 % of patients and the “cortical bone mineral content” value (bone) is given as “increased cortical bone mineral content”.
For `C#CC1(O)CC[C@H]2[C@@H]3CCC4=CC(=O)CC[C@@H]4[C@H]3CC[C@@]21CC` (mixture of isomers) [norgestrel], the androgenic activity [2] is given as “possess androgenic activity at low concentrations” and the estrogenic activity (estrogenic activity) is given as “possess estrogenic activity”.
With `C[C@@H]1C[C@H]2[C@@H]3CCC4=CC(=O)C=C[C@]4(C)[C@@]3(F)[C@@H](O)C[C@]2(C)[C@@]1(O)C(=O)CO` [DEX, dexamethasone] the “concentration exerting maximal inhibitory effect on the GR” value [3] was 3 µM.
For `C[C@]12CCC(=O)C=C1CC[C@@H]1[C@@H]2CC[C@@]2(C)[C@H]1CC[C@]2(C)O` [methyltestosterone, 17α-methyltestosterone], the symptoms of endometriosis (endometriosis) is given as “relieve the symptoms of endometriosis”.
With `CCC(=O)[C@@]1(C)CC[C@H]2[C@@H]3CCC4=CC(=O)CCC4=C3CC[C@@]21C` [R5020] the “condition under which antiproliferative effect is observed” value [4] was “observed only under E1 -stimulated conditions” and the “effect of insulin on inhibition via PgR” value ([4]; addition of insulin) was “completely reverses the inhibition”.
